Counter-ions that a name gives are not always drawn. Like-named read-outs stand apart in the source and are kept apart here.
Assays:
[1] = format: physicochemical; conditions: 40° C. and 75% RH; for Stability to the test conditions (in words): 28 day test period
Description: Identity, Assay, and Purity by HPLC
Testing was performed on a calibrated and validated Agilent 1200 Rapid Resolution High Performance Liquid Chromatography (HPLC) system designated LC-0430-AD or LC-418-1D. The system comprises a binary SL pump, degasser, high performance autosampler SL with a fraction collector, thermostated column compartment with a 2 valve column switcher, and a DAD SL detector. All standard solutions and samples were prepared in Class A glass volumetric flasks and were placed in autosampler vials. Standard weighings were done using a calibrated Mettler analytical balance. The sample preparations were centrifuged using an Eppendorf microcentrifuge. The primary chromatography data was acquired and integrated using Empower 2 software. Microsoft Office Excel 2003 was used for the calculation of results.
Solid State Stability of Salts at 40° C. and 75% Humidity:
Samples of the form to be studied (15-20 mg) were weighed into standard 1.5 mL HPLC vials (32×11.6 mm) and stored uncapped for 0, 7, 14 and 28 days in a 40° C. and 75% RH stability chamber. Samples were removed on the indicated day and capped. Measurements of XRPD, DSC, TGA and HPLC Identity by Purity and Assay measurements were completed on each time point sample.

[2] = Dynamic vapor sorption (DVS), water sorption; format: physicochemical; conditions: DVS; for DVS sorption behaviour (in words) / Total uptake (moisture): 25° C.; for Total uptake (moisture): entire RH range
Description: Dynamic Vapor Sorption (DVS):
DVS experiments have been carried out using the DVS-HT instrument (Surface Measurement Systems, London, UK). This instrument measures the uptake and loss of vapor gravimetrically using a recording ultra-microbalance with a mass resolution of ±0.1 μg. The vapor partial pressure (±1.0%) around the sample is controlled by mixing saturated and dry carrier gas streams using electronic mass flow controllers. The desired temperature is maintained at ±0.1° C. The samples (1-10 mg) were placed into the DVS-HT and DVS-1 instruments at the desired temperature.
The sample was loaded and unloaded at 40% RH and 25° C. (typical room conditions). A moisture sorption isotherm was performed as outlined below (2 scans giving 1 complete cycle). The software uses a least squares minimization procedure together with a model of the mass relaxation, to predict an asymptotic value. The measured mass equilibration value must be within 2% of that predicted by the software before proceeding to the next % RH value. The minimum equilibration time was set to 1 hour and the maximum to 4 hours.

[3] = Estimation of water solubility; format: physicochemical; conditions: visual inspection, 10 mg sample
Description: Estimation of Water Solubility: Ten mg portions of the salt forms to be studied were weighed into a standard 1.5 mL HPLC vial (32×11.6 mm). […] An estimation of solubility was based on the volume of water necessary to dissolve the known weight of sample.

For `COc1cccc2[nH]c3c4c(c5c(c3c12)C(=O)N(CN1CCN(C)CC1)C5=O)CCC4` [Hydrochloride Salt, Form A], the “Stability to the test conditions (in words)” value (from here on “Stability”) [1] was “relatively constant XRPD pattern”, the “Compound A Assay value, change (in words)” value ([1]; after 28 days) was “decreasing to nearly half” and the “DVS sorption behaviour (in words)” value [2] was “surface adsorption with limited bulk absorption throughout the entire RH range”. For the same molecule, the “Total uptake (moisture)” value [2] was roughly 2.25%.

For `COc1cccc2[nH]c3c4c(c5c(c3c12)C(=O)N(CN1CCN(C)CC1)C5=O)CCC4` [L-Pyroglutamate Salt, Form A1], the “Stability” value [1] was “stable over a 28 day test period, except for a slow increase in Compound B content”, the “DVS sorption behaviour (in words)” value [2] was “massive uptake in moisture” and the “Total uptake (moisture)” value [2] was roughly 27%. For the same molecule, the “Water absorption, first cycle” value ([2]; RH range of 40-75%) was roughly 2%.

In the case of `COc1cccc2[nH]c3c4c(c5c(c3c12)C(=O)N(CN1CCN(C)CC1)C5=O)CCC4` [L-Malate Salt, Form A1], the “Stability” value [1] is reported as “stable to the test conditions”, the “HPLC Purity” value ([1]; day 0) is reported as 99.5% and the TGA ([1]; day 0) is reported as 0.1%. For the same molecule, the “COMPOUND A Assay” value ([1]; day 0, HPLC) was 69.9%, the “COMPOUND B Assay” value ([1]; day 0, HPLC) was 0.2% and the “HPLC Purity” value ([1]; day 7) was 99.3%. For the same molecule, the TGA ([1]; day 7) was 0.2%, the XRPD ([1]; day 7) was “No change” and the “COMPOUND A Assay” value ([1]; day 7, HPLC) was 71.8%. For the same molecule, the “COMPOUND B Assay” value ([1]; day 7, HPLC) was 0.4%, the “HPLC Purity” value ([1]; day 14) was 98.8% and the TGA ([1]; day 14) was 0.8%. The XRPD ([1]; day 14) was “No change”, the “COMPOUND A Assay” value ([1]; day 14, HPLC) was 72.0% and the “COMPOUND B Assay” value ([1]; day 14, HPLC) was 0.5%. For the same molecule, the “HPLC Purity” value ([1]; day 28) was 98.4%, the TGA ([1]; day 28) was 0.3% and the XRPD ([1]; day 28) was “No change”. For the same molecule, the “COMPOUND A Assay” value ([1]; day 28, HPLC) was 71.7%, the “COMPOUND B Assay” value ([1]; day 28, HPLC) was 0.8% and the “DVS sorption behaviour (in words)” value [2] was “very little water absorption during the first cycle from 40% RH to 70% RH”. The “Total uptake (moisture)” value [2] was roughly 2%.

For `COc1cccc2[nH]c3c4c(c5c(c3c12)C(=O)N(CN1CCN(C)CC1)C5=O)CCC4` [Acetate Salt, Form A1.5], the “Stability” value [1] was “changes throughout the 28 day test period”, the “HPLC Purity” value ([1]; day 0) was 99.7% and the TGA ([1]; day 0) was 21.5%. For the same molecule, the “COMPOUND A Assay” value ([1]; day 0, HPLC) was 78.1%, the “COMPOUND B Assay” value ([1]; day 0, HPLC) was 0.2% and the “HPLC Purity” value ([1]; day 7) was 99.6%. The TGA ([1]; day 7) was 20.0%, the XRPD ([1]; day 7) was “Shows hydrate” and the “COMPOUND A Assay” value ([1]; day 7, HPLC) was 70.2%. For the same molecule, the “COMPOUND B Assay” value ([1]; day 7, HPLC) was 0.1%, the “HPLC Purity” value ([1]; day 14) was 99.5% and the TGA ([1]; day 14) was 16.1%. For the same molecule, the XRPD ([1]; day 14) was “Shows hydrate”, the “COMPOUND A Assay” value ([1]; day 14, HPLC) was 84.2% and the “COMPOUND B Assay” value ([1]; day 14, HPLC) was 0.2%. The “HPLC Purity” value ([1]; day 28) was 99.6%, the TGA ([1]; day 28) was 9.6% and the XRPD ([1]; day 28) was “Shows hydrate,”. The “COMPOUND A Assay” value ([1]; day 28, HPLC) was 90.9%, the “COMPOUND B Assay” value ([1]; day 28, HPLC) was 0.3% and the “DVS sorption behaviour (in words)” value [2] was “steady weight loss during the drying curves with no equilibration reached”.

In the case of `COc1cccc2[nH]c3c4c(c5c(c3c12)C(=O)N(CN1CCN(C)CC1)C5=O)CCC4` [Sample 39-2], the “Estimated Water Solubility” value [3] is reported as less than 10 mg/mL.

For `COc1cccc2[nH]c3c4c(c5c(c3c12)C(=O)N(CN1CCN(C)CC1)C5=O)CCC4` [Sample 30-5], the “Estimated Water Solubility” value [3] was roughly 25 mg/mL.

With `COc1cccc2[nH]c3c4c(c5c(c3c12)C(=O)N(CN1CCN(C)CC1)C5=O)CCC4` [Sample 13-8] the “Estimated Water Solubility” value [3] was greater than 100 mg/mL.

In the case of `COc1cccc2[nH]c3c4c(c5c(c3c12)C(=O)N(CN1CCN(C)CC1)C5=O)CCC4` [Sample 31-2], the “Estimated Water Solubility” value [3] is reported as greater than 100 mg/mL.

In the case of `COc1cccc2[nH]c3c4c(c5c(c3c12)C(=O)N(CN1CCN(C)CC1)C5=O)CCC4` [Sample 31-4], the “Estimated Water Solubility” value [3] is reported as greater than 100 mg/mL.

Source: patent US10150772B2, “Crystalline forms of PARP inhibitors” (priority 2014, dated 2018)
